Assay results: patent US20150157021A1, “NEW ANTIFUNGAL COMPOSITIONS” (DSM IP ASSETS B.V., priority 2012, published 2015)

Experiments:
Penicillium italicum = assay: Treatment of wounded oranges inoculated with Penicillium italicum (Examples 7, 8); type: in vivo; details: 20° C., 250 ppm natamycin, 400 ppm boscalid or both
Description: Ten fresh, organic oranges were used per treatment. Each orange was soaked in a 180 ppm hypochlorite solution for 10 minutes, then rinsed thoroughly with fresh tap water and dried. The peel of each disinfected orange was wounded once using a cork borer according to the method described by de Lapeyre de Bellaire and Dubois (1987). Subsequently, each wound was inoculated with 10 μl of a Penicillium italicum suspension containing 1×10^5 of spores/ml. After incubation for 3 hours at 20° C., each wound and the orange peel area of 1 cm around the wound was treated with in total 150 μl of a freshly prepared aqueous antifungal composition comprising either 500 ppm natamycin (DSM Food Specialties, Delft, The Netherlands), 800 ppm boscalid or both. Each antifungal composition also comprised 3.2% (w/w) beeswax, 0.8% (w/w) glycerol, 0.7% (w/w) polyoxyethylene sorbitan monostearate (Tween 60), 0.2% (w/w) polyoxyethylene sorbitan monooleate (Tween 80), 0.05% (w/w) methylhydroxyethyl-cellulose (MHEC), 0.03% (w/w) anti-foaming agent, 0.02% (w/w) xanthan gum, 0.02% (w/w) citric acid, 0.01% (w/w) lactic acid and 0.01% potassium sorbate. A composition without natamycin or boscalid was used as control. […] The treated oranges were incubated in a closed box in the dark at 20° C. and assessed on mould growth during a 17-day incubation period. The antifungal activity (in %) of the individual and combined active ingredients was determined by calculating the reduction in mould growth observed on the oranges treated with the antifungal composition in comparison to the mould growth on the oranges treated with the control composition according to the Colby method (Colby, 1967) described in Example 5.
The experiment was conducted as described in Example 7, except for the fact that each wounded and inoculated orange was treated with 150 μl of a freshly prepared aqueous antifungal composition comprising either 250 ppm natamycin (DSM Food Specialties, Delft, The Netherlands), 400 ppm boscalid or both. The treated oranges were incubated in a closed box in the dark at 20° C. and assessed on mould growth during a 18-day incubation period. During incubation, the treated oranges were assessed on mould growth according to the method described in Example 7.

Botrytis cinerea = assay: Treatment of wounded strawberries inoculated with Botrytis cinerea (Examples 5, 6); type: in vivo; details: for Observed antifungal activity O (%): strawberries, 20° C.
Description: Twelve fresh, organic strawberries were used per treatment. Each strawberry was wounded with a 0.5 mm long cut and each wound was inoculated with 10 μl of a Botrytis cinerea suspension containing 1×10^5 of spores/ml. After a 3-hour incubation period at 20° C., each strawberry was dipped individually for 1 minute in a freshly prepared aqueous antifungal composition comprising either 500 ppm natamycin (DSM Food Specialties, Delft, The Netherlands), 500 ppm fenhexamid or both. Each antifungal composition also comprised 3.2% (w/w) beeswax, 0.8% (w/w) glycerol, 0.7% (w/w) polyoxyethylene sorbitan monostearate (Tween 60), 0.1% (w/w) polyoxyethylene sorbitan monooleate (Tween 80), 0.05% (w/w) methylhydroxyethyl-cellulose (MHEC), 0.03% (w/w) anti-foaming agent, 0.02% (w/w) xanthan gum, 0.02% (w/w) citric acid, 0.01% (w/w) lactic acid and 0.01% potassium sorbate. A composition without natamycin or fenhexamid was used as control. […] The treated strawberries were incubated in a closed box in the dark at 20° C. for 11 days.
The expected antifungal activity (E in %) of the combined antifungal composition comprising both active ingredients was calculated according to the Colby equation (Colby, 1967): […]
wherein X and Y are the observed antifungal activities (in %) of the individual active ingredients X and Y, respectively.
The experiment was conducted as described in Example 5, except for the fact that each wounded and inoculated strawberry was dipped individually for 1 minute in a freshly prepared aqueous antifungal composition comprising either 250 ppm natamycin (DSM Food Specialties, Delft, The Netherlands), 250 ppm fenhexamid or both. The treated strawberries were incubated in a closed box in the dark at 20° C. for 10 days. During incubation, the treated strawberries were assessed on mould growth according to the two methods described in Example 5.

SMILES: C[C@@H]1C/C=C/C=C/C=C/C=C/[C@H](O[C@@H]2O[C@H](C)[C@@H](O)[C@H](N)[C@@H]2O)C[C@@H]2O[C@](O)(C[C@@H](O)C[C@H]3O[C@@H]3/C=C/C(=O)O1)C[C@H](O)[C@H]2C(=O)O [Natamycin, natamycin]
- Observed antifungal activity O (%) (Penicillium italicum; 11 days): 69%
- Observed antifungal activity O (%) (Penicillium italicum; 12 days): 66%
- Observed antifungal activity O (%) (Penicillium italicum; 13 days): 62%
- Observed antifungal activity O (%) (Penicillium italicum; 14 days): 51%
- Observed antifungal activity O (%) (Penicillium italicum; 17 days): 39%
- Observed antifungal activity O (%) (Penicillium italicum; 18 days): 34%
- Number of moulded strawberries/total number of 12 strawberries (Botrytis cinerea; Day 5, 20° C., 250 ppm natamycin, 250 ppm fenhexamid or both): 9/12
- Number of moulded strawberries/total number of 12 strawberries (Botrytis cinerea; Day 5, 20° C., 250 ppm natamycin, 250 ppm fenhexamid or both, listed as natamycin): 9
- Number of moulded strawberries/total number of 12 strawberries (Botrytis cinerea; Day 6-7, 20° C., 250 ppm natamycin, 250 ppm fenhexamid or both): 11/12
- Number of moulded strawberries/total number of 12 strawberries (Botrytis cinerea; Day 6-7, 20° C., 250 ppm natamycin, 250 ppm fenhexamid or both, listed as natamycin): 11
- Number of moulded strawberries/total number of 12 strawberries (Botrytis cinerea; Day 7-8, 20° C., 500 ppm natamycin, 500 ppm fenhexamid or both): 12/12
- Number of moulded strawberries/total number of 12 strawberries (Botrytis cinerea; Day 8, 20° C., 250 ppm natamycin, 250 ppm fenhexamid or both): 11/12
- Number of moulded strawberries/total number of 12 strawberries (Botrytis cinerea; Day 8, 20° C., 250 ppm natamycin, 250 ppm fenhexamid or both, listed as natamycin): 11
- Number of moulded strawberries/total number of 12 strawberries (Botrytis cinerea; Day 9, 20° C., 500 ppm natamycin, 500 ppm fenhexamid or both): 12/12
- Number of moulded strawberries of 12 (Botrytis cinerea; after 6 through 9 days of incubation, 500 ppm natamycin alone or 500 ppm fenhexamid alone): 12
- Observed antifungal activity O (%) (Botrytis cinerea; 8 days, 250 ppm natamycin, 250 ppm fenhexamid or both): 18%
- Observed antifungal activity O (%) (Botrytis cinerea; 9 days, 250 ppm natamycin, 250 ppm fenhexamid or both): 13%
- Observed antifungal activity O (%) (Botrytis cinerea; 10 days, 250 ppm natamycin, 250 ppm fenhexamid or both): 4.8%
- Observed antifungal activity O (%) (Botrytis cinerea; 10 days, 500 ppm natamycin, 500 ppm fenhexamid or both): 2.4%
- Observed antifungal activity O (%) (Botrytis cinerea; 11 days, 500 ppm natamycin, 500 ppm fenhexamid or both): 2.4%
